One assay has as its system AQP2. The assay is described as follows: RT-PCR analysis of AQP2 expression in ES cells. The following applies: immortalized human ES epithelial cells. The format is cell-based. From the text: The inner ear can function properly only if the chemical equilibrium and volume of inner ear fluids are maintained. The disruption of inner ear homeostasis results in many inner ear disorders such as Meniere's disease. The endolymphatic sac (ES) is believed to be involved in homeostasis of endolymph such as ion and fluid regulation. Aquaporins (AQPs) function like a molecular water valve, allowing water to move along a specific direction. AQP1, 2, 3, 4, and 6 are all found in the ES and may have an important role in endolymph fluid homeostasis. […] Taken together, our findings indicate that ES epithelial cells are invovled in homeostasis of endolymph through regulation of AQP2 and AQP3. We believe that our ES cell line will provide an in vitro model enabling us to better understand the molecular pathogeneis of Meniere's disease.

The next assay deals with ES cells. The assay is described as follows: Water permeability of ES cells (fluorescence-quenching assay). In kind it is cell-based. As to conditions: immortalized human ES epithelial cells. The protocol: For water permeability measurement, an ES cell line is plated in 96-well clear bottom of black-walled microplates (Costar) at a density of 20000 cells per well in F-12 Ham's medium supplemented with 10% FBS and 0.5 mg/mL G418. After incubation at 37° C. in an atmosphere containing 5% CO2 with 90% humidity for 18 h, the cells in 96-well plates are washed twice in PBS buffer (200 μL/wash), leaving 100 μL PBS after the last wash. Measurement is performed on a FLUOstar Optima plate reader (BMG Technology) equipped with syringe pumps and excitation and emission filters. Cells in each well of the plate are assayed individually for osmotically driven (e.g., aquaporin-mediated), water influx across the plasma membrane that dilutes the cytoplasmic Cl^− by recording fluorescence increase continuously (0.2 s per point) for 2 s (baseline) and then for 21 s (water transport into the cells) after rapid injection (<1 s) of 100 μL distilled water. Water permeability is expressed as half time (t1/2) from water injection to the point when the cytoplasmic fluorescence reaches the maximum. A smaller t1/2 represents a higher water permeability.
The inner ear can function properly only if the chemical equilibrium and volume of inner ear fluids are maintained. The disruption of inner ear homeostasis results in many inner ear disorders such as Meniere's disease. […]

In another assay the test system is HESC-1 cells. The assay is described as follows: Secretion of viscous substance by HESC-1 cells. The format is cell-based, human. The text has this: For example, viscosity of the substance derived from the cells can be measured using an Ubbelohde viscometer (VWR) after collection of the supernatant. Osmolality of the substance can be measured using a freezing point osmometer (Precision Systems, Natick, MA). To determine the factors influencing secretion of osmotically active and viscous substances, the cells can be cultured using a serum-free medium with deficiency of a specific factor such as retinoic acid, hydrocortisone and triiodothronine.
(§1) Regulatory mechanisms involved in secretion and biological functions of these molecules can be determined. The HESC-1 cells provides a basis for an in vitro model for the studies of secretory function of the ES.

Assay [1] concerns mucin core proteins and hyaluronic acid synthases. The assay is described as follows: qRT-PCR analysis of mucin core proteins and hyaluronic acid synthases in HESC-1 cells. In kind it is cell-based, human.
Excerpt: We identified hyaluronic acid among the osmotically active substances derived from our ES cell line. Three isoforms of hyaluronic acid synthases (HASs) are identified in humans. For example, transcriptional regulation of each HAS can be determined using real-time quantitative RT-PCR analysis after extraction of total RNAs from the ES cell line. Protein levels of each HAS can be measured using immunobloting after extraction of total proteins from the ES cell line. To determine the factors regulating each HAS, the cells can be cultured using a serum-free medium with deficiency of a specific factor such as retinoic acid, hydrocortisone and triiodothronine.
as §1
A general note: In qPCR the cycle at which signal appears reflects the starting amount.

As to `NC(=O)CC[C@@H]1NC(=O)[C@H](Cc2ccccc2)NC(=O)[C@H](Cc2ccc(O)cc2)NC(=O)[C@@H](N)CSSC[C@@H](C(=O)N2CCC[C@H]2C(=O)N[C@@H](CCCN=C(N)N)C(=O)NCC(N)=O)NC(=O)[C@H](CC(N)=O)NC1=O` [vasopressin], the “AQP2 expression (RT-PCR)” value in the assay on AQP2 was “up-regulation”. In addition, the “water permeability of ES cells upon exposure” value in the assay with ES cells is on record as “affected”.

As for “EGF: human epidermal growth factor (EGF) (NSDSECPLSHDGYCLHDGVCMYIEALDKYACNCVVGYIGERCQYRDLKWWELR; UniProt P01133 971-1023, looked up)”, the “secretion of viscous substance” value in the assay on HESC-1 cells is on record as “secrete viscous substance”. In addition, the “expression of mucin core proteins and hyaluronic acid synthases (qRT-PCR)” value in assay [1] is recorded as “up-regulate”.

The values above are taken from patent US20120122716A1, “CELL LINE DERIVED FROM THE EPITHELIAL LINING OF THE HUMAN ENDOLYMPHATIC SAC IN THE INNER EAR” (priority 2010, published 2012).
